We go through four compounds from ChEMBL document CHEMBL1132132, “Synthesis of heparin partial structures and their binding activities to platelets” (1999).

What all share (assay type): functional
The species named for experiment [1] is Homo sapiens. The experiment in a line: Platelets binding activity relative to heparin was evaluated by competitive binding assay using [3H]-labeled heparin at concentration ~400 uM.
The species named for experiment [2] is Homo sapiens. The experiment in a line: Platelets binding activity relative to heparin was evaluated by competitive binding assay using [3H]-labeled heparin at concentration ~1000 uM.
For experiment [3], the species on record is Homo sapiens. The experiment in a line: Platelets binding activity relative to heparin was evaluated by competitive binding assay using [3H]-labeled heparin at concentration ~80 uM.
Experiment [4] is filed under the species Homo sapiens. The experiment in a line: Platelets binding activity relative to heparin was evaluated by competitive binding assay using [3H]-labeled heparin at concentration 0.001 uM.
Experiment [5] is filed under the species Homo sapiens. The experiment in a line: Platelets binding activity relative to heparin was evaluated by competitive binding assay using [3H]-labeled heparin at concentration ~1.2 uM.
Experiment [6] is filed under the species Homo sapiens. The experiment in a line: Platelets binding activity relative to heparin was evaluated by competitive binding assay using [3H]-labeled heparin at concentration ~1.9 uM.
The species named for experiment [7] is Homo sapiens. Put plainly: Platelets binding activity relative to heparin was evaluated by competitive binding assay using [3H]-labeled heparin at concentration ~60 uM.
Experiment [8] is filed under the species Homo sapiens. The experiment in a line: Platelets binding activity relative to heparin was evaluated by competitive binding assay using [3H]-labeled heparin at concentration ~50 uM.

As for `CO[C@H]1O[C@H](COS(=O)(=O)[O-])[C@@H](O[C@H]2O[C@H](C(=O)[O-])[C@@H](OC)[C@H](O)[C@H]2OS(=O)(=O)[O-])[C@H](O)[C@H]1NS(=O)(=O)[O-].[Na+].[Na+].[Na+].[Na+]`, the Binding in the experiment listed under Homo sapiens [1] is on record as 96%; in the experiment filed under Homo sapiens [2] it was 97%; in the experiment filed under Homo sapiens [3] it was 97%; in the experiment filed under Homo sapiens [4], 115%; in the experiment filed under Homo sapiens [5], 96%.

`CO[C@H]1O[C@H](CO)[C@@H](O[C@H]2O[C@H](C(=O)[O-])[C@@H](OC3O[C@H](COS(=O)(=O)[O-])[C@@H](OC)[C@H](O)[C@H]3NS(=O)(=O)[O-])[C@H](O)[C@H]2OS(=O)(=O)[O-])[C@H](O)[C@H]1NS(=O)(=O)[O-].[Na+].[Na+].[Na+].[Na+].[Na+]` (stereo not given in full): the Binding is reported as 100% in the experiment listed under Homo sapiens [6]; 110% in the experiment listed under Homo sapiens [1]; 110% in the experiment filed under Homo sapiens [2]; 105% in the experiment listed under Homo sapiens [7]; 100% in the experiment listed under Homo sapiens [5].

For `CO[C@H]1O[C@H](COS(=O)(=O)[O-])[C@@H](O[C@H]2O[C@H](C(=O)[O-])[C@@H](O[C@H]3O[C@H](COS(=O)(=O)[O-])[C@@H](OC)[C@H](O)[C@H]3NS(=O)(=O)[O-])[C@H](O)[C@H]2OS(=O)(=O)[O-])[C@H](O)[C@H]1NS(=O)(=O)[O-].[Na+].[Na+].[Na+].[Na+].[Na+].[Na+]`, the Binding in the experiment filed under Homo sapiens [6] came out at 105%; in the experiment listed under Homo sapiens [8], 105%; in the experiment listed under Homo sapiens [1], 100%; in the experiment filed under Homo sapiens [2], 97%; in the experiment filed under Homo sapiens [5], 105%.

As to `CO[C@@H]1O[C@H](C(=O)[O-])[C@@H](O[C@H]2O[C@H](COS(=O)(=O)[O-])[C@@H](OC)[C@H](OS(=O)(=O)[O-])[C@H]2NS(=O)(=O)[O-])[C@H](O)[C@H]1OS(=O)(=O)[O-].[Na+].[Na+].[Na+].[Na+].[Na+]`, the Binding was found to be 98% in the experiment listed under Homo sapiens [6]; 115% in the experiment filed under Homo sapiens [1]; 75% in the experiment listed under Homo sapiens [2]; 100% in the experiment listed under Homo sapiens [3]; 100% in the experiment filed under Homo sapiens [5].
